Results: patent US6562381B2, “(+)-Cycloolivil as antioxidant obtained from natural source namely stereospermum personatum” (Council of Scientific and Industrial Research, priority 2001, dated 2003)

Assays:
[1] = In vitro free radical (DPPH) scavenging antioxidant potency; type: biochemical; details: for 50% Radical scavenging concentration: DPPH radical, tris-HCl buffer pH 7.4, 45 minutes in dark, absorbency at 517 nm, triplicate
Description: Antioxidant activity of the compounds was tested for its capacity/potency to scavenge most widely used free radical, 1,1-diphenyl-2-picryl hyrazyl radical (DPPH). […] 200 μl of test compounds were reconstituted to 1 ml in tris-HCl buffer (pH 7.4). […] After incubation for 45 minutes in dark, the absorbency at 517 nm was recorded. Percent radical scavenging activity was calculated accordingly. All the readings were taken in triplicate.

[2] = test system: Cyclic AMP phosphodiesterase; details: known activity, Chem. Pharm. Bull, 1981, 29, 3586-92; cited from earlier work
[3] = known activity, Chem. Pharm. Bull, 1986, 34, 3514-17; cited from earlier work

Structure (SMILES): COc1cc([C@H]2c3cc(O)c(OC)cc3C[C@@](O)(CO)[C@@H]2CO)ccc1O [(+)-Cycloolivil]
- 50% Radical scavenging concentration [1]: 21.74 µg/mL
- Antioxidant activity compared with reference drugs Probucol and alpha-tocopherol ([1]; comparison in words): better than the above mentioned reference drugs
- Cyclic AMP phosphodiesterase inhibition [2]: inhibition
- Ca^2+ antagonist activity [3]: Ca^2+ antagonist activity

Structure (SMILES): Cc1c(C)c2c(c(C)c1O)CCC(C)(CCCC(C)CCCC(C)CCCC(C)C)O2 (stereo not drawn) [DL α-Tocopherol, reference compound]
- 50% Radical scavenging concentration [1]: 47.80 µg/mL
